Assay results: ChEMBL document CHEMBL1141584, “Synthesis, biological evaluation and molecular modelling studies of methyleneimidazole substituted biaryls as inhibitors of human 17alpha-hydroxylase-17,20-lyase (CYP17). Part I: Heterocyclic modifications of the core structure” (Bioorg Med Chem, 2008)

Key:
[1] = target: T1, Steroid 17-alpha-hydroxylase/17,20 lyase (Homo sapiens, UniProt P05093); assay: Inhibition of human CYP17 expressed in Escherichia coli co-expressed with NADPH-P450 reductase at 0.2 uM
T1 sequence (P05093 whole entry): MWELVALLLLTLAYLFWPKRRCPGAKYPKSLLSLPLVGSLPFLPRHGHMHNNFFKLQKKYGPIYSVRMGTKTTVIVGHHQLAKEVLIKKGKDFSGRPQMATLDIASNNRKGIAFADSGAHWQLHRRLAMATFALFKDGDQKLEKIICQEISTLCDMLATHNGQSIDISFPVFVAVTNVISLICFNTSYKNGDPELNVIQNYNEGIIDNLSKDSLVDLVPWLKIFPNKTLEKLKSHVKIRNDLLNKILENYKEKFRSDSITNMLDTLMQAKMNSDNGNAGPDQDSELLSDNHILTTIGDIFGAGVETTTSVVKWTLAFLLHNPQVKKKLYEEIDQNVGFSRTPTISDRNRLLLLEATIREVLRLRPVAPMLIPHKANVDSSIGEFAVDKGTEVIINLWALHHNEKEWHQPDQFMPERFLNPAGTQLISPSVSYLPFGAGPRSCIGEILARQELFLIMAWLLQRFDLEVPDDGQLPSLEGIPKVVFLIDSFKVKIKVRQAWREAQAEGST

[2] = target: T1, Steroid 17-alpha-hydroxylase/17,20 lyase; assay: Inhibition of human CYP17 expressed in Escherichia coli co-expressed with NADPH-P450 reductase at 2 uM
CYP3A4 [3] = target: T2, CYP3A4 (Homo sapiens, UniProt P08684); assay: Inhibition of recombinant CYP3A4 at 1 uM; format: ADME
CYP3A4 [4] = target: T2, CYP3A4; assay: Inhibition of recombinant CYP3A4 at 10 uM; format: ADME
[5] = target: T1, Steroid 17-alpha-hydroxylase/17,20 lyase; assay: Inhibition of human CYP17 expressed in Escherichia coli co-expressed with NADPH-P450 reductase
CYP2D6 [6] = target: T3, CYP2D6 (Homo sapiens, UniProt P10635); assay: Inhibition of recombinant CYP2D6 at 1 uM; format: ADME
[7] = Terminal half life in Wistar rat plasma at 50 mg/kg, po; format: ADME, organism-based; set-up: dose 50 mg/kg, route oral
CYP2D6 [8] = target: T3, CYP2D6; assay: Inhibition of recombinant CYP2D6 at 10 uM; format: ADME
[9] = Total body clearance in Wistar rat at 50 mg/kg, po; format: ADME, organism-based; set-up: dose 50 mg/kg, route oral; details: in vivo
CYP2B6 [10] = target: T4, CYP2B6 (Homo sapiens, UniProt P20813); assay: Inhibition of recombinant CYP2B6 at 10 uM; format: ADME
T4 sequence (P20813 whole entry): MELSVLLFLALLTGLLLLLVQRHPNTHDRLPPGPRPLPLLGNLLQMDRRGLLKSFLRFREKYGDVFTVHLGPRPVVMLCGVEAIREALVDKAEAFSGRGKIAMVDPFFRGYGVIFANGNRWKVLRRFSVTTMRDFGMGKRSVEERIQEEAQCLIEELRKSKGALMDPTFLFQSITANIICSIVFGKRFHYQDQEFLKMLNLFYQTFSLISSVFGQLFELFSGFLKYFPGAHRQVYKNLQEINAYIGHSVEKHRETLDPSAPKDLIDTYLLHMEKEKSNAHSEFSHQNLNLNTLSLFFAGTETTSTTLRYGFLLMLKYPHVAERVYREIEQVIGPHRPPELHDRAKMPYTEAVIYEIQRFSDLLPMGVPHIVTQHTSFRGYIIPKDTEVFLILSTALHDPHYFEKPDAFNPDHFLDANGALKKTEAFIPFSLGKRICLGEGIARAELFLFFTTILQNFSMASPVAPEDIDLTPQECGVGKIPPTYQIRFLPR

[11] = Cmax in Wistar rat at 50 mg/kg, po; format: ADME, organism-based; set-up: dose 50 mg/kg, route oral; details: in vivo
CYP2C19 [12] = target: T5, CYP2C19 (Homo sapiens, UniProt P33261); assay: Inhibition of recombinant CYP2C19 at 10 uM; format: ADME
[13] = target: T6, Steroid 17-alpha-hydroxylase/17,20 lyase (Rattus norvegicus, UniProt P11715); assay: Inhibition of Sprague-Dawley rat testicular CYP17
T6 sequence (P11715 whole entry): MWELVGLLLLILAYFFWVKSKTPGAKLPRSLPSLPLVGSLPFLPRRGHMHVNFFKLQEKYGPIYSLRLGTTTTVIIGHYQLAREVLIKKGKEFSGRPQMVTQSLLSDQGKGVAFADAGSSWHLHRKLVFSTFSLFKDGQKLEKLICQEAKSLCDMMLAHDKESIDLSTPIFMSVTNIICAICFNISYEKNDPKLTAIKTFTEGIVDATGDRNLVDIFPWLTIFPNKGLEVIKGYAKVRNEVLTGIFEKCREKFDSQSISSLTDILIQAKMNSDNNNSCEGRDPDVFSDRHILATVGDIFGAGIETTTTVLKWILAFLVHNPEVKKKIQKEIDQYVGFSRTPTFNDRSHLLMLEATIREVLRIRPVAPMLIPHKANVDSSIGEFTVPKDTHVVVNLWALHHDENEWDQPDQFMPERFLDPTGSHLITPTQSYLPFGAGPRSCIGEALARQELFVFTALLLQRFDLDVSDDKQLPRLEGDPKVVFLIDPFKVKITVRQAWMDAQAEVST

CYP2B6 [14] = target: T4, CYP2B6; assay: Inhibition of recombinant CYP2B6 at 1 uM; format: ADME
[15] = AUC (0 to infinity) in Wistar rat at 50 mg/kg, po; format: ADME, organism-based; set-up: time infinity, dose 50 mg/kg, route oral; details: plasma
[16] = Tmax in Wistar rat at 50 mg/kg, po; format: ADME, organism-based; set-up: dose 50 mg/kg, route oral; details: in vivo
CYP2C9 [17] = target: T7, CYP2C9 (Homo sapiens, UniProt P11712); assay: Inhibition of recombinant CYP2C9 at 1 uM; format: ADME
CYP2C19 [18] = target: T5, CYP2C19; assay: Inhibition of recombinant CYP2C19 at 1 uM; format: ADME
CYP1A2 [19] = target: T8, CYP1A2 (Homo sapiens, UniProt P05177); assay: Inhibition of recombinant CYP1A2 at 1 uM; format: ADME
T8 sequence (P05177 whole entry): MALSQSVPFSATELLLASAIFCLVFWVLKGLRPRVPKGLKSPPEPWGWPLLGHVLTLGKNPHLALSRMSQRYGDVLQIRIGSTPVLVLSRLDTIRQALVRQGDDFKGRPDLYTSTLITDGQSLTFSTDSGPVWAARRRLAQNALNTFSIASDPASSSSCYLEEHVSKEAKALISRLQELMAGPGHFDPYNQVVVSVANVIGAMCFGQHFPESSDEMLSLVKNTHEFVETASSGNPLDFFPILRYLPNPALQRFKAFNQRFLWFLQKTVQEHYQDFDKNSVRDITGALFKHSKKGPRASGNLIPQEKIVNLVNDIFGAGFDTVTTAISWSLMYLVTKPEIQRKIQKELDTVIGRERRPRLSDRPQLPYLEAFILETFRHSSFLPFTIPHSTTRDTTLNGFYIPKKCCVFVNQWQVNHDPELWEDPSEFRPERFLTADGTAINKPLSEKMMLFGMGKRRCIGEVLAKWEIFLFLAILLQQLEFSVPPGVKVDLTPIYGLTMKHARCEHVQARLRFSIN

CYP2C9 [20] = target: T7, CYP2C9; assay: Inhibition of recombinant CYP2C9 at 10 uM; format: ADME
CYP1A2 [21] = target: T8, CYP1A2; assay: Inhibition of recombinant CYP1A2 at 10 uM; format: ADME

T5 sequence (P33261 whole entry): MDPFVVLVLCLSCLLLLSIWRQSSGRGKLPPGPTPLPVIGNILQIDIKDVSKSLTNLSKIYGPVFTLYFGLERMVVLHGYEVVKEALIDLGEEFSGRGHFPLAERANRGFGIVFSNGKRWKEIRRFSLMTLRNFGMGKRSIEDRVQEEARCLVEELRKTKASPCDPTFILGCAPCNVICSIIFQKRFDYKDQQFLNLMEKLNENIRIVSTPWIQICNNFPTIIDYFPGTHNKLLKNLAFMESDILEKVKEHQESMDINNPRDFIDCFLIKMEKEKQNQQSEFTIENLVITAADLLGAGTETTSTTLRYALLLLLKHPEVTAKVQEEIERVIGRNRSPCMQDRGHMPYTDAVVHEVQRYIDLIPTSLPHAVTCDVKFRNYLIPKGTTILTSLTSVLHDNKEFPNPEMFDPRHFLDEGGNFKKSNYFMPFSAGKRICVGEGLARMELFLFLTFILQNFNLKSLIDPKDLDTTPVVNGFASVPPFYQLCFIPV
T2 sequence (P08684 whole entry): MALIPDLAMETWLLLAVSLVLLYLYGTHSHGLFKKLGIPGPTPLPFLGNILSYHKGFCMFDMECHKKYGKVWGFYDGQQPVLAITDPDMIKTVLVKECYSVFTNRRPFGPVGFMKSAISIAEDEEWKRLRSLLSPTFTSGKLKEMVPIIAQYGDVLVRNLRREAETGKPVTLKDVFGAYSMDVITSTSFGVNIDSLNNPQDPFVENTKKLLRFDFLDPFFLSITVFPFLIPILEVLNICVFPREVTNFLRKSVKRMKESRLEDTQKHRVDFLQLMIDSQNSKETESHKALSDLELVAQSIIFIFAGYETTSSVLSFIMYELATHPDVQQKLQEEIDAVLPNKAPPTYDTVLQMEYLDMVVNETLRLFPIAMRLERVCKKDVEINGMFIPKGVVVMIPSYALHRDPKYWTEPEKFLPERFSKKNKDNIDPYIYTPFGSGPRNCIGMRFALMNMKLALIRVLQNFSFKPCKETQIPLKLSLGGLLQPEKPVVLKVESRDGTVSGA
T3 sequence (P10635 whole entry): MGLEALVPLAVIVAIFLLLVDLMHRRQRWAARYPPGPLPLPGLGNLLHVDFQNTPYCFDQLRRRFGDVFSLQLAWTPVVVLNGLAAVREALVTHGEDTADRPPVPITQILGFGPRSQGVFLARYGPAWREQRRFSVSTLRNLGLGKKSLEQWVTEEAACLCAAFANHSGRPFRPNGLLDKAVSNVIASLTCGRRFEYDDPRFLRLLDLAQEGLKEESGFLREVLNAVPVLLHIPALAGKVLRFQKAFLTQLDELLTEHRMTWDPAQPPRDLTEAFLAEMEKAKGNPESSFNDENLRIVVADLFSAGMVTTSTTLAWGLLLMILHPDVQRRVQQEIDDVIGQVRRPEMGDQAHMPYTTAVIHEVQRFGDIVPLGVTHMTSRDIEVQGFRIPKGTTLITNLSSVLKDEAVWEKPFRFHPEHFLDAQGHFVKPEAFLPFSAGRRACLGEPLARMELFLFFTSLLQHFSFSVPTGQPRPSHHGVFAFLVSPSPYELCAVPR
T7 sequence (P11712 whole entry): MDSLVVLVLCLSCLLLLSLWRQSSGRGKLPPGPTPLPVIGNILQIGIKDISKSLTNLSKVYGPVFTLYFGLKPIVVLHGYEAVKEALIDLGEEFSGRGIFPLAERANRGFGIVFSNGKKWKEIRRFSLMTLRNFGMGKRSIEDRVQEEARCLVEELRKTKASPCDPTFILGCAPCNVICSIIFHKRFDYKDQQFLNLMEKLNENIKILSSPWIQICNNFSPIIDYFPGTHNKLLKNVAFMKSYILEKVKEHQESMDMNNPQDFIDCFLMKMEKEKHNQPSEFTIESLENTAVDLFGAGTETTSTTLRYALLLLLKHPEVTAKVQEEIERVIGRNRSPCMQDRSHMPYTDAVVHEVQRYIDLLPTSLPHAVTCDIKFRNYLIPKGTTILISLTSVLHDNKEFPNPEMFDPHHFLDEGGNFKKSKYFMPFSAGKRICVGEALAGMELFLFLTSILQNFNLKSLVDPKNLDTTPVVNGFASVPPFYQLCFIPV

Structure (SMILES): COc1ccc(-c2csc(Cn3ccnc3)c2)cc1OC
- inhibition at 0.2 µM [1]: 0%
- inhibition at 2 µM [2]: 14%

Structure (SMILES): Fc1ccc(-c2csc(Cn3ccnc3)c2)cc1F
- inhibition at 0.2 µM [1]: 7%
- inhibition at 2 µM [2]: 25%

Structure (SMILES): CCC(c1ccc(-c2cscc2C)cc1F)n1ccnc1 (centres undefined)
- inhibition at 1 µM (CYP3A4 [3]): 88%
- inhibition at 0.2 µM [1]: 41%
- inhibition at 10 µM (CYP3A4 [4]): 97%
- inhibition at 2 µM [2]: 92%
- IC50 [5]: 236 nM

Structure (SMILES): COc1ccc(-c2ccc(Cn3ccnc3)cn2)cc1
- inhibition at 0.2 µM [1]: 0%
- inhibition at 2 µM [2]: 0%

Structure (SMILES): Fc1ccc(-c2ccc(Cn3ccnc3)cn2)cc1F
- inhibition at 0.2 µM [1]: 0%
- inhibition at 2 µM [2]: 0%

Structure (SMILES): COc1cccc(-c2csc(Cn3ccnc3)c2)c1
- inhibition at 0.2 µM [1]: 0%
- inhibition at 2 µM [2]: 24%

Structure (SMILES): CC(c1ccc(N2CCOCC2)cc1)n1ccnc1 (centres undefined)
- inhibition at 0.2 µM [1]: 5%
- inhibition at 2 µM [2]: 12%

Structure (SMILES): COc1ccc(-c2ccc(Cn3ccnc3)cn2)cc1OC
- inhibition at 0.2 µM [1]: 1%
- inhibition at 2 µM [2]: 2%

Structure (SMILES): Fc1ccc(-c2ccc(Cn3ccnc3)nc2)cc1
- inhibition at 0.2 µM [1]: 0%
- inhibition at 2 µM [2]: 2%

Structure (SMILES): Fc1ccc(-c2csc(Cn3ccnc3)c2)cc1
- inhibition at 0.2 µM [1]: 0%
- inhibition at 2 µM [2]: 20%

Structure (SMILES): Cc1cscc1-c1ccc(Cn2ccnc2)cc1
- inhibition at 0.2 µM [1]: 0%
- inhibition at 2 µM [2]: 27%

Structure (SMILES): COc1ccc(-c2csc(Cn3ccnc3)c2)cc1
- inhibition at 0.2 µM [1]: 0%
- inhibition at 2 µM [2]: 13%

Structure (SMILES): c1ccc(-c2csc(Cn3ccnc3)c2)cc1
- inhibition at 0.2 µM [1]: 0%
- inhibition at 2 µM [2]: 21%

Structure (SMILES): c1cncc(-c2ccc(Cn3ccnc3)cc2)c1
- inhibition at 0.2 µM [1]: 2%
- inhibition at 2 µM [2]: 14%

Structure (SMILES): c1cn(Cc2ccc(-c3ccoc3)cc2)cn1
- inhibition at 0.2 µM [1]: 3%
- inhibition at 2 µM [2]: 29%

Structure (SMILES): C[C@]12CC[C@H](O)CC1=CC[C@@H]1[C@@H]2CC[C@]2(C)C(c3cccnc3)=CC[C@@H]12 [ABIRATERONE]
- inhibition at 1 µM (CYP2D6 [6]): 7%
- half-life [7]: 1.6 h
- inhibition at 10 µM (CYP2D6 [8]): 7%
- inhibition at 1 µM (CYP3A4 [3]): 4%
- CL/F [9]: 187 mL/min/kg
- inhibition at 10 µM (CYP2B6 [10]): 11%
- Cmax [11]: 592 ng/mL
- inhibition at 10 µM (CYP2C19 [12]): 21%
- inhibition at 10 µM (CYP3A4 [4]): 25%
- IC50 [13]: 220 nM
- inhibition at 1 µM (CYP2B6 [14]): 2%
- AUC(0-inf) [15]: 4020 ng·h/mL
- Tmax [16]: 2 h

Structure (SMILES): c1cn(Cc2ccc(-c3cncnc3)cc2)cn1
- inhibition at 0.2 µM [1]: 5%
- inhibition at 2 µM [2]: 3%

Structure (SMILES): CSc1ccc(-c2ccc(Cn3ccnc3)cc2)s1
- inhibition at 0.2 µM [1]: 3%
- inhibition at 2 µM [2]: 35%

Structure (SMILES): Fc1ccc(-c2ccc(Cn3ccnc3)cn2)cc1
- inhibition at 0.2 µM [1]: 5%
- inhibition at 2 µM [2]: 5%

Structure (SMILES): CCC(c1ccc(-c2ccsc2Cl)cc1)n1ccnc1 (centres undefined)
- inhibition at 1 µM (CYP3A4 [3]): 87%
- inhibition at 0.2 µM [1]: 40%
- inhibition at 10 µM (CYP3A4 [4]): 97%
- inhibition at 2 µM [2]: 85%
- IC50 [5]: 263 nM

Structure (SMILES): COc1cccc(-c2ccc(Cn3ccnc3)cn2)c1
- inhibition at 0.2 µM [1]: 0%
- inhibition at 2 µM [2]: 1%

Structure (SMILES): Fc1ccc(-c2ccc(Cn3ccnc3)cc2)cn1
- inhibition at 0.2 µM [1]: 4%
- inhibition at 2 µM [2]: 13%

Structure (SMILES): c1ccc(-c2ccc(Cn3ccnc3)cn2)cc1
- inhibition at 0.2 µM [1]: 0%
- inhibition at 2 µM [2]: 4%

Structure (SMILES): CC(C)C(O)(c1ccc(-c2ccsc2)cc1)c1c[nH]cn1 (centres undefined)
- inhibition at 0.2 µM [1]: 7%
- inhibition at 2 µM [2]: 49%

Structure (SMILES): CCC(c1cc(-c2ccc(F)c(F)c2)cs1)n1ccnc1 (centres undefined)
- inhibition at 0.2 µM [1]: 17%
- inhibition at 1 µM (CYP2C9 [17]): 94%
- inhibition at 1 µM (CYP2C19 [18]): 95%
- inhibition at 10 µM (CYP2C19 [12]): 97%
- inhibition at 1 µM (CYP1A2 [19]): 93%
- inhibition at 10 µM (CYP2C9 [20]): 100%
- inhibition at 2 µM [2]: 68%
- inhibition at 10 µM (CYP1A2 [21]): 96%

Structure (SMILES): Nc1cccc(-c2ccc(Cn3ccnc3)cn2)c1
- inhibition at 0.2 µM [1]: 2%
- inhibition at 2 µM [2]: 3%

Structure (SMILES): CCC(c1ccc(-c2cscc2C)cc1)n1ccnc1 (centres undefined)
- inhibition at 0.2 µM [1]: 27%
- inhibition at 2 µM [2]: 84%
- IC50 [5]: 584 nM

Structure (SMILES): COc1ccccc1-c1ccc(Cn2ccnc2)cn1
- inhibition at 0.2 µM [1]: 0%
- inhibition at 2 µM [2]: 5%

Structure (SMILES): ClCc1ccc(-c2ccc(Cn3ccnc3)cc2)cn1
- inhibition at 0.2 µM [1]: 9%
- inhibition at 2 µM [2]: 24%

Structure (SMILES): CCC(c1ccc(-c2ccc(SC)s2)cc1)n1ccnc1 (centres undefined)
- inhibition at 0.2 µM [1]: 2%
- inhibition at 2 µM [2]: 3%
